Laboratory results published in PMC11091968, “Degradation of the α-Carboxyl Terminus 11 Peptide: In Vivo and Ex Vivo Impacts of Time, Temperature, Inhibitors, and Gender in Rat” (ACS Pharmacology & Translational Science, 2024).
Where a name gives a salt, the structure may show the parent alone. Read-outs that look alike come from different tables or passages of the source. One block for each compound: values may come before it. Residues, ends and D or L forms follow the SMILES beside them. *: point of attachment. Biotin = O=C1N[C@H]2[C@H](CS[C@H]2CCCCC(=O)*)N1; Ahx = NCCCCCC(=O)O

How the values were obtained:
[1] = target: papain; conditions: against papain; 8 (Table S4); cited from earlier work
Excerpt: (§1) page 5: S-5 Table S4. Protease and phosphatase inhibitor cocktail and their major targets. Abbreviations: AEBSF: 4-(2-aminoethyl) benzenesulfonyl fluoride hydrochloride; ATPase: adenosine 5′ -triphosphatase; E-64: L-trans-3-carboxyoxiran-2-carbonyl-L-leucylagmatine; IC 50: half maximal inhibitory concentration;; Ki: inhibitory constant; MW: molecular weight; N/A: not applicable; PP1 or 2A: protein ph osphatase 1 or 2A; PTP: protein tyrosine phosphatase; K293: human embryonic kidney cell line; HS596: human HS683 glioma cell line; SKN695: human SK-N-SH neuroblastoma cell line. Ingredient MW (Da ...

[2] = test system: HS596 cells; conditions: tested on HS596 cells (human HS683 glioma cell line); ref 1-3 (Table S4); cited from earlier work
Excerpt: as §1

[3] = test system: SKN695 cells; conditions: tested on SKN695 cells (human SK-N-SH neuroblastoma cell line); ref 1-3 (Table S4); cited from earlier work
Excerpt: as §1

[4] = test system: K293 cells; conditions: tested on K293 cells (human embryonic kidney cell line); ref 1-3 (Table S4); cited from earlier work
Excerpt: as §1

[5] = test system: serine/threonine protein phosphatases; conditions: against serine/threonine protein phosphatases; 14 (Table S4); cited from earlier work
Excerpt: as §1

[6] = test system: serine/threonine protein phosphatases 2A; conditions: against serine/threonine protein phosphatases 2A; 14 (Table S4); cited from earlier work
Excerpt: as §1

[7] = test system: phosphatidylserine; conditions: cited from earlier work
Excerpt: as §1

[8] = target: lysosomal and prostatic acid phosphatases; conditions: against lysosomal and prostatic acid phosphatases; 21 (Table S4); cited from earlier work
Excerpt: as §1

[9] = Ex vivo degradation of αCT11 in isolated rat plasma; format: in vitro ADME; conditions: for remaining at 5 min, 100 μM: 100 μM αCT11, 5 min
Excerpt: A third group of rats (including both males and females) was not subjected to either MI or the tail vein injection of αCT11. Instead, after injection of heparin (300 U/mL blood, the total units of heparin were estimated from body weight of each rat), as much blood as possible was collected under deep anesthesia via a cardiac puncture with a 21G needle connected to a syringe containing heparin. Blood was then transferred into an anticlotting tube on ice, followed by plasma separation as described above. All plasma collected from either males or females were randomly sorted into 4 groups (G) per gender [G1: 22 °C; G2: 37 °C, G3: 22 °C + inhibitor cocktail and G4: 37 °C + inhibitor cocktail] and incubated at 22 °C [in an Eppendorf thermomixer (Eppendorf North America, Framingham, MA)] or at 37 °C [in a digital dry bath (Benchmark, Sayreville, NJ)] with or without additions of αCT11 (at a final concentration of 100 μM in each tube) in the presence or absence of a PTase/PPTase inhibitor cocktail (at a final concentration of 1.5× of the original concentration). It took less than ∼30 s for the 22 °C groups to reach 22 °C and ∼75 s for the 37 °C groups to reach 37 °C. […], 100 μL of plasma was taken in triplicate from the tube of each animal at 0, 5, 30, and 60 min following additions of αCT11 and the cocktail inhibitors (if applied). The collected samples were then transferred to new tubes for further preparation prior to LC/MS-MS analysis.
Plasma samples collected from either in vivo (see the In Vivo “Pharmacokinetic” Analysis of αCT11 section) or ex vivo (see the Ex Vivo Degradation Analysis of αCT11 in Rat Plasma section) groups were processed in the same way outlined here, according to the modified protocol from a previous publication.[36] Briefly, 100 μL of plasma was added to a 0.5 mL low-adhesion microcentrifuge tube containing 4% FA in 200 μL of ACN [see Table S1]. The tubes were slightly (∼1 min) vortexed and centrifuged for 5 min at 11,332g using an Eppendorf Centrifuge 5424R (Eppendorf North America, Framingham, MA) to recover the supernatants. 100 μL of the supernatant was then combined with 100 μL of deionized H2O in 2 mL amber autovials with a low-volume insert and capped. The samples were either stored at 4 °C up to 4 weeks (see the Results section) or analyzed immediately using a Waters H-Class UPLC mass spectrometer (Milford, MA) and its accompanying MassLynx software, version 4.2 (Milford, MA).
For measurement, the sample extracts were first separated chromatographically with an HSS T3 column and matching VanGurd column at 40 °C. A 4 μL sample was injected onto the column using a refrigerated autosampler at 5 °C. Mobile phase A was comprised of 1% FA in H2O and mobile phase B was comprised of 1% FA in ACN (Table S1). The mobile phase was delivered to the column at a flow rate of 0.4 mL/min. Tuning was performed on each analyte by direct infusion of a standard solution (0.1 ng/μL) at a rate of 10 μL/min. The parent and production transitions for αCT11 peptide are shown in Table S2, while the mass spectrometry parameters used for detecting αCT11 are listed in Table S3.
Data were collected at 0 min in triplicate from each group using LC/MS-MS and were first calibrated as 100%; all other data from the same group were then normalized as % change over the data at 0 min. A Student’s t-test was used for comparison of 2 groups, while 1- or 2-way ANOVA followed by Tukey’s test was used for comparisons of ≥3 groups with 1 or 2 factors. All data were expressed as mean ± standard error (SE), if not otherwise specified, with p < 0.05 considered statistically significant. Data were analyzed and plotted using GraphPad Prism 9.3.1 (San Diego, CA) and Microsoft 2019 MS Excel (Redmond, WA).

[10] = Storage stability at 4 °C of plasma samples prepared for mass spectrum analysis; format: physicochemical; conditions: mass spectrum samples from male rat plasma
Method: Plasma samples collected from either in vivo (see the In Vivo “Pharmacokinetic” Analysis of αCT11 section) or ex vivo (see the Ex Vivo Degradation Analysis of αCT11 in Rat Plasma section) groups were processed in the same way outlined here, according to the modified protocol from a previous publication.[36] Briefly, 100 μL of plasma was added to a 0.5 mL low-adhesion microcentrifuge tube containing 4% FA in 200 μL of ACN [see Table S1]. The tubes were slightly (∼1 min) vortexed and centrifuged for 5 min at 11,332g using an Eppendorf Centrifuge 5424R (Eppendorf North America, Framingham, MA) to recover the supernatants. 100 μL of the supernatant was then combined with 100 μL of deionized H2O in 2 mL amber autovials with a low-volume insert and capped. The samples were either stored at 4 °C up to 4 weeks (see the Results section) or analyzed immediately using a Waters H-Class UPLC mass spectrometer (Milford, MA) and its accompanying MassLynx software, version 4.2 (Milford, MA). […]
Following the initial measurements at Week 0 (i.e., Day 0 when fresh plasma was isolated and αCT11 concentrations were measured at 0 min at 22 °C and 37 °C), the same samples used in each conduction were stored at 4 °C for 1 week (A), 4 weeks (B), or 6 weeks (C) before being used again to measure the peptide concentrations. […]

[11] = In vivo "pharmacokinetic" analysis of αCT11 in plasma after tail vein injection; design: species or system rat; conditions: tail vein injection to 100 μM in blood, LC-MS/MS, n = 3
Method: A second group of rats (only male) was not subjected to MI but injected (via the tail vein) with the same concentration of αCT11 as described in the Rat Model of I/R MI and Tail Vein Injection of αCT11 section. After injection, about 250–350 μL of blood was withdrawn at 1, 5, and 10 min following administration and transferred into an anticlotting tube containing heparin. Plasma was then separated at 4 °C and 2000g for 10 min using an Eppendorf Centrifuge 5810R (Eppendorf North America, Framingham, MA) and stored at −80 °C or used immediately for liquid chromatography tandem mass spectrometry (LC/MS-MS; described in the Prepreparation and Measurements of Plasma Containing αCT11 for LC/MS-MS Analysis section).
Plasma samples collected from either in vivo (see the In Vivo “Pharmacokinetic” Analysis of αCT11 section) or ex vivo (see the Ex Vivo Degradation Analysis of αCT11 in Rat Plasma section) groups were processed in the same way outlined here, according to the modified protocol from a previous publication.[36] Briefly, 100 μL of plasma was added to a 0.5 mL low-adhesion microcentrifuge tube containing 4% FA in 200 μL of ACN [see Table S1]. […] The samples were either stored at 4 °C up to 4 weeks (see the Results section) or analyzed immediately using a Waters H-Class UPLC mass spectrometer (Milford, MA) and its accompanying MassLynx software, version 4.2 (Milford, MA). […]

[12] = target: plasmin; conditions: against plasmin; 10 (Table S4); cited from earlier work
Excerpt: as §1

[13] = target: trypsin; conditions: against trypsin; 10 (Table S4); cited from earlier work
Excerpt: as §1

[14] = target: Aspartic proteases; conditions: enzyme not given; 11 (Table S4); cited from earlier work
Excerpt: as §1

[15] = test system: human cathepsin D; design: method as in earlier work; conditions: against human cathepsin D; 11 (Table S4); cited from earlier work
Excerpt: as §1, with “line.” for “line. Ingredient MW (Da ...”

Compound: CC(C)C[C@H](NC(=O)[C@H]1O[C@@H]1C(=O)O)C(=O)NCCCCN=C(N)N (relative stereo) [E-64, L-trans-3-carboxyoxiran-2-carbonyl-L-leucylagmatine]
Ki [1]: 0.009 µM

Compound: NCCc1ccc(S(=O)(=O)F)cc1 [AEBSF, 4-(2-aminoethyl) benzenesulfonyl fluoride hydrochloride]
IC50 [2]: 300 µM
IC50 [3]: 300 µM
IC50 [4]: 1000 µM

Compound: C[C@@]12C(=O)OC(=O)[C@]1(C)[C@H]1CC[C@@H]2O1 [Cantharidin]
IC50 [5]: 0.47 µM
IC50 [6]: 0.04 µM

Compound: [Na+].[Na+].[Na+].[O]=[V]([O-])([O-])[O-] [Sodium orthovanadate]
IC50 [7]: 100 µM

Compound: O=C([O-])C(O)C(O)C(=O)[O-].[Na+].[Na+] (centres unmarked) [Sodium tartrate]
Ki [8]: 1 µM

remaining at 5 min, 100 μM ([9]; isolated heparinised female rat plasma, 22 °C, with 1.5× PTase/PPTase inhibitor cocktail, LC-MS/MS, mean ± SE, n = 3 rats, read-out: percentage of αCT11 (normalized to 0 min)): 80.9 ± 3.7%
remaining at 1 h, 100 μM ([9]; isolated heparinised female rat plasma, 22 °C, with 1.5× PTase/PPTase inhibitor cocktail, 100 μM αCT11, 60 min, LC-MS/MS, mean ± SE, n = 3 rats, read-out: percentage of αCT11 (normalized to 0 min)): 13.2 ± 3.3%
remaining at 5 min, 100 μM ([9]; isolated heparinised female rat plasma, 37 °C, no inhibitors, LC-MS/MS, mean ± SE, n = 3 rats (9 replicates), read-out: αCT11 level, % of starting concentration (0 min)): 51.4 ± 3.5%
αCT11 level, % of starting concentration (0 min) ([9]; isolated heparinised female rat plasma, 37 °C, no inhibitors, 100 μM αCT11, 30 min, LC-MS/MS, mean ± SE, n = 3 rats (9 replicates)): 1.6 ± 0.6%
remaining at 1 h, 100 μM ([9]; isolated heparinised female rat plasma, 37 °C, no inhibitors, 100 μM αCT11, 60 min, LC-MS/MS, mean ± SE, n = 3 rats (9 replicates), read-out: αCT11 level, % of starting concentration (0 min)): 0.1 ± 0.03%
remaining at 0.5 h, 100 μM ([9]; isolated heparinised male rat plasma, 22 °C, with 1.5× PTase/PPTase inhibitor cocktail, 100 μM αCT11, 30 min, LC-MS/MS, mean ± SE, n = 3 rats, read-out: percentage of αCT11 (normalized to 0 min)): 41.6 ± 3.3%
remaining at 1 h, 100 μM ([9]; isolated heparinised male rat plasma, 22 °C, with 1.5× PTase/PPTase inhibitor cocktail, 100 μM αCT11, 60 min, LC-MS/MS, mean ± SE, n = 3 rats, read-out: percentage of αCT11 (normalized to 0 min)): 19.1 ± 2.7%
remaining at 5 min, 100 μM ([9]; isolated heparinised male rat plasma, 37 °C, no inhibitors, LC-MS/MS, mean ± SE, n = 3 rats (9 replicates), read-out: αCT11 level, % of starting concentration (0 min)): 61.9 ± 5.7%
remaining at 0.5 h, 100 μM ([9]; isolated heparinised male rat plasma, 37 °C, no inhibitors, 100 μM αCT11, 30 min, LC-MS/MS, mean ± SE, n = 3 rats (9 replicates), read-out: αCT11 level, % of starting concentration (0 min)): 1.5 ± 1.2%
remaining at 1 h, 100 μM ([9]; isolated heparinised male rat plasma, 37 °C, no inhibitors, 100 μM αCT11, 60 min, LC-MS/MS, mean ± SE, n = 3 rats (9 replicates), read-out: αCT11 level, % of starting concentration (0 min)): 0.04 ± 0.06%
αCT11 in isolated plasma by 30 min ([9]; isolated rat plasma, 22 and 37 °C, no inhibitors, 30 min, LC-MS/MS): nearly undetectable
αCT11 concentrations, male vs female rat plasma ([9]; isolated rat plasma, 22 or 37 °C, absence and presence of 1.5× inhibitors, any time point (0, 5, 30, 60 min), LC-MS/MS, n = 3): no significant differences
αCT11 in ex vivo plasma at 60 min ([9]; isolated rat plasma, males and females, 22 °C, no inhibitors, 100 μM αCT11, 60 min, LC-MS/MS): almost undetectable
time for αCT11 concentration to decrease to 50% in ex vivo plasma ([9]; isolated rat plasma, males and females, 22 °C, no inhibitors, 100 μM αCT11, LC-MS/MS): about 10 min
storage time at 4 °C without significant degradation of αCT11 [10]: up to 4 weeks
reduction of the initial αCT11 concentration in plasma ([11]; male rats without MI, about 5 min postinjection): ~53%
αCT11 in blood plasma 10 min after tail vein injection ([11]; male rats, 10 min postinjection): almost undetectable
Compound: CC[C@H](C)[C@H](NC(=O)[C@H](CCC(=O)O)NC(=O)[C@H](CC(C)C)NC(=O)[C@H](CC(=O)O)NC(=O)[C@H](CC(=O)O)NC(=O)[C@@H]1CCCN1C(=O)[C@H](CCCNC(=N)N)NC(=O)[C@@H]1CCCN1C(=O)[C@H](CCCNC(=N)N)NC(=O)CCCCCNC(=O)CCCC[C@@H]1SC[C@@H]2NC(=O)N[C@@H]21)C(=O)O [αCT11] ({Biotin-Ahx}-RPRPDDLEI-OH)

Compound: Leupeptin
Ki [12]: 0.0034 µM
Ki [13]: 0.0035 µM

Compound: Pepstatin A
Ki [14]: 0.01 nM
IC50 [15]: 0.021 µM
